Reference: patent US4515708A, “Corrosion inhibitors” (Exxon Research & Engineering Co., priority 1982, dated 1985)
Like-named read-outs stand apart in the source and are kept apart here.

What was measured:
[1] = Film persistency corrosion test; conditions: CO2 + H2S, 24 h, 70° C.
Method: […] A test fluid made up of equal proportions of 3 wt% brine and Mentor 28 was used, saturated with CO2 and containing 100 ppm H2 S as corrosives. Coupons were used as described for the previous corrosion test. A coupon was first immersed in test fluid containing corrosives and the inhibitor under test for 1 hour, then rinsed for 1 hour in a similar test fluid containing no inhibitor and finally transferred to a further test fluid again containing no inhibitor in which the dynamic wheel test was carried out at 70° C. for 24 hours.

[2] = Corrosion Test 3 (dynamic wheel test; 3 wt% brine + Mentor 28; CO2 only); conditions: 24 h, 70° C.
Method: (§1) For each compound three mild steel coupons (approximately 100 mm×12 mm×1.5 mm) were tested at each concentration. Each was contacted in a 250 ml bottle with 200 ml of a test fluid either saturated with a carbon dioxide at 20° C. or containing 100 ppm hydrogen sulphide or having both CO2 and H2 S present in those amounts. The test fluid was treated with a 30% aqueous solution of the compound under test at 2, 10, 50 and 250 ppm except where indicated to the contrary. The coupon was subjected to a dynamic wheel test in which the bottle was mounted radially on the periphery of 650 mm diameter wheel which was rotated at about 40 rpm for 24 hours at 70° C. The weight loss was obtained, and also measured in a control experiment where no inhibitor was present. From this the % protection was calculated as % reduction in weight loss.
(§2) Test fluid: 100 ml 3 wt% brine+100 ml Mentor 28
Corrosives: Saturated CO2 only

[3] = Emulsion Test (3 wt% brine / heptane); type: physicochemical; parameters: Emulsion thickness after 30 mins: unit not given here; conditions: for Time to break emulsion: 1 ml of 35 wt% IPA solution, 50 ml 3 wt% brine, 50 ml heptane; for Appearance after 30 mins, hydrocarbon: hydrocarbon layer; for Appearance after 30 mins, hydrocarbon / Appearance after 30 mins, water / Emulsion thickness after 30 mins: 50 ml 3 wt% brine/50 ml heptane; for Appearance after 30 mins, water: water layer
Method: 1 ml of the solutions used for Test A was shaken with 50 ml of 3 wt% brine and 50 ml of heptane for 1 minute in a 150 ml bottle. The emulsion was observed, and the time noted for the emulsion to break and form a clean interface with clear liquid layers. If at 30 minutes this had not occurred, the appearance was recorded together with the thickness of any persisting emulsion.

[4] = Solubility Test (35 wt% solution in isopropylalcohol shaken with water, brine or heptane); type: physicochemical
Method: The active material under test was made up into a 35 wt% solution in isopropylalcohol (IPA). 0.3 ml of this solution was shaken with 10 ml of each of the liquids in which solubility is to be tested: water, 5 wt% NaCl solution (brine) and heptane. The mixture was observed after 30 minutes and 24 hours.

[5] = Corrosion Test 2 (dynamic wheel test; 3 wt% brine; CO2 + H2S); conditions: 24 h, 70° C.
Method: as §1
Test Fluid: 200 ml 3 wt% brine
(§3) Corrosives: Saturated CO2 +100 ppm H2 S

[6] = Corrosion Test 4 (dynamic wheel test; 3 wt% brine + Mentor 28; H2S); conditions: 24 h, 70° C.
Method: as §1, §2
Corrosives: 100 ppm H2 S (prior nitrogen purge)

[7] = Corrosion Test 1 (dynamic wheel test; 3 wt% brine/Mentor 28; CO2 + H2S); conditions: 24 h, 70° C.
Method: as §1
Test fluid: 100 ml 3 wt% brine/100 ml Mentor 28 (Mentor®28 is a depolarised kerosene available from Exxon Chemical Company)
as §3

[8] = Corrosion inhibition tests, constant concentration conditions (overall)
Method: as §1

[9] = 0.3 ml of 35 wt% IPA solution in 10 ml heptane, 30 minutes and 24 hours
[10] = 0.3 ml of 35 wt% IPA solution in 10 ml water, observed after 30 minutes and 24 hours

Row | SMILES | % Protection ([1]; 500 ppm) [%] | % Protection ([1]; 1000 ppm) [%] | % Protection ([1]; 5000 ppm) [%] | % Protection ([2]; 2 ppm) [%] | % Protection ([2]; 10 ppm) [%] | % Protection ([2]; 250 ppm) [%] | Time to break emulsion [3] [min] | Appearance after 30 mins, hydrocarbon [3] | Appearance after 30 mins, water [3] | % Protection ([5]; 2 ppm) [%] | % Protection ([5]; 10 ppm) [%] | % Protection ([5]; 50 ppm) [%] | % Protection ([5]; 250 ppm) [%] | % Protection ([6]; 2 ppm) [%] | % Protection ([6]; 10 ppm) [%] | % Protection ([6]; 250 ppm) [%] | % Protection ([7]; 2 ppm, 30% solution) [%] | % Protection ([7]; 10 ppm, 30% solution) [%] | % Protection ([7]; 50 ppm, 30% solution) [%] | % Protection ([7]; 250 ppm, 30% solution) [%] | also measured
1 | c1ccc(CNCCc2ccccn2)cc1 [Example 8] | 19 | 22 | 24 | 13 | 32 | 37 | > 30 | clear | hazy | 37 | 69 | 75 | 85 | 8 | 12 | 55 | 21 | 72 | 81 | 81 | % Protection ([2]; 50 ppm): 34%; SOLUBILITY IN: Heptane [4, 9]: S; SOLUBILITY IN: Water [4, 10]: S; % Protection ([6]; 50 ppm): 40%; % Protection ([7]; 2 ppm, * active material added as undiluted compound): 46%; % Protection ([7]; 10 ppm, * active material added as undiluted compound): 53%; % Protection ([7]; 50 ppm, * active material added as undiluted compound): 88%; % Protection ([7]; 250 ppm, * active material added as undiluted compound): 97%
2 | CCCCCCCCCCCCN(CCc1ccccn1)CCc1ccccn1 [Example 19] |  |  |  |  |  |  | > 30 | hazy | hazy |  |  |  |  | 2 | 57 | 57 | 16 | 71 | 77 | 86 | performance of 2:1 derivatives compared with 1:1 derivatives [8]: tended to perform less well than 1:1 derivatives; SOLUBILITY IN: Heptane [4, 9]: S; SOLUBILITY IN: Water [4, 10]: S
3 | c1ccc(CN(CCc2ccccn2)CCc2ccccn2)cc1 [Example 20] |  |  |  |  |  |  | 1 | clear | clear | 51 | 63 | 75 | 91 |  |  |  | 24 | 25 | 63 | 81 | performance of 2:1 derivatives compared with 1:1 derivatives [8]: tended to perform less well than 1:1 derivatives; SOLUBILITY IN: Heptane [4, 9]: S; SOLUBILITY IN: Water [4, 10]: S
4 | CCCCCCNCCc1ccncc1 [Example 22] | 19 | 20 | 23 | 9 | 5 | 7 | 1 | clear | clear | 11 | 9 | 41 | 74 | 8 | 50 | 67 | 41 | 67 | 81 | 87 | % Protection ([2]; 50 ppm): 13%; SOLUBILITY IN: Brine [4]: S; SOLUBILITY IN: Heptane [4]: S; SOLUBILITY IN: Water [4]: S; % Protection ([6]; 50 ppm): 67%
5 | CCCCCCCCCCCCNCCc1ccncc1 [Example 25] | 17 | 15 | 20 | 10 | 6 | 27 | > 30 | hazy | hazy | 5 | 44 | 79 | 94 | 11 | 17 | 78 | 28 | 53 | 88 | 96 | % Protection ([2]; 50 ppm): 21%; Emulsion thickness after 30 mins [3]: 0.2; SOLUBILITY IN: Heptane [4, 9]: S; SOLUBILITY IN: Water [4, 10]: S; % Protection ([6]; 50 ppm): 57%
6 | CCCCCCCCCCCCCCCCCCNCCc1ccncc1 [Example 28] | 16 | 16 | 23 | 8 | 12 | 9 | > 30 | hazy | clear | 11 | 94 | 96 | 95 | 2 | 3 | 56 | 8 | 23 | 48 | 87 | Emulsion thickness after 30 mins [3]: 4.0; SOLUBILITY IN: Water [4, 10]: S; % Protection ([6]; 50 ppm): 49%
7 | CCCCCCN(CCc1ccncc1)CCc1ccncc1 [Example 38] |  |  |  |  |  |  | 1 | clear | clear |  |  |  |  |  |  |  | 2 | 64 | 79 | 80 | performance of 2:1 derivatives compared with 1:1 derivatives [8]: tended to perform less well than 1:1 derivatives
8 | CCCCCCCCCCCCN(CCc1ccncc1)CCc1ccncc1 [Example 39] | 20 | 24 | 33 | 9 | 5 | 15 | > 30 | hazy | hazy | 41 | 65 | 78 | 87 | 3 | 26 | 85 | 26 | 70 | 89 | 89 | performance of 2:1 derivatives compared with 1:1 derivatives [8]: tended to perform less well than 1:1 derivatives; Emulsion thickness after 30 mins [3]: 0.1; % Protection ([6]; 50 ppm): 64%
